Measured values taken from patent publication US20040106120A1, “Diagnosis and treatment of disease” (priority 2000, published 2004).

Columns and labels:
chymotrypsin = chymotrypsin (Bos taurus, UniProt P00766); experiment: Chymotrypsin proteolysis of synthetic corneodesmosin peptides; format: biochemical; settings: peptide exposed to chymotrypsin in appropriate buffer
Source text: Peptides corresponding to fragments of corneodesmosin, and comprising amino acids at and around position 40 (L20815; corresponding to position 180 on the nucleotide sequence) are synthesised. The peptides are exposed to chymotrypsin in appropriate buffer, and the digestion products identified. Chymotrypsin is known to cleave the peptide bond C-terminal to a F, Y or W residue, but not C-terminal to an L residue.
Peptides P1 and P2 (size 38 amino acids, comprising L and F at position 40 of L20815 respectively) are exposed to chymotrypsin. Peptide P1 has the sequence PTRITSPNDPCL40[…], while peptide P2 has the sequence PTRITSPNDPCF40[…].
The above results are confirmed by using the ExPASy Molecular Biology Server at http://www.expasy.ch/.

[1] = test system: reconstituted human epidermis cultures (skin equivalents); experiment: Treatment of skin equivalents (reconstituted human epidermis cultures) for 16 hours, light microscopy histology; format: cell-based; settings: 16 hours at 37° C; for effect of peptide on stratum corneum of skin equivalent: 6 μM peptide, 200 μl applied to surface, versus buffered salt solution; for effect of cytokine on stratum corneum thickness of skin equivalent: 2.5 ng/ml added to medium
Method: (§1) 1 ml of room temperature SkinEthic maintenance medium is added to each well of 6-well tissue culture plates (one well per skin equivalent). The cell culture inserts containing the skin equivalents are removed from the agarose transportation medium using sterile forceps and placed in the wells ensuring no air bubbles are formed. The well plates are placed in a humid incubator at 37° C., 5% CO2. After 24 hours the medium is changed and the appropriate treatment is applied. 200 μl of each treatment is applied to the surface of the skin equivalent as follows: Control—buffered salt solution; 10% foetal bovine serum; 0.25% chymotrypsin; 6 μM Peptide 643.
All reagents are made up to the correct concentration in a buffered salt solution comprising the following in 1 litre: 0.142 g Na2HPO4, 1.802 g Glucose, 7.149 g HEPES, 0.224 g KCl, 7.597 g NaCl, pH 7.4.
Treatments are allowed to act on the cultures for 16 hours at 37° C.
The skin equivalents and membranes are cut from the cell culture insert using a scalpel. The equivalents are fixed in 10% formalin (3.7% formaldehyde) in phosphate buffered saline for 24 hours at 4° C. Samples are washed in 3 changes of PBS. The PBS is the decanted from the samples which are dehydrated in 3×5 minute changes of 70% ethanol, 2×5 minute changes of 95% ethanol and 2×5 minute changes of 100% ethanol. The samples are then placed in xylene for 5 minutes and then molten paraffin for infiltration for 5 minutes. The samples are occasionally agitated during each of the steps. The equivalents are then oriented in more molten paraffin in an embedding mould and allowed to set for 1 hour.
5 μm sections are taken of each block and collected on glass microscope slides. The slides are dried at 50° C. overnight.
The slides are racked and placed in xylene for 2×5 minute washes to remove any unwanted paraffin. The slides are then rehydrated by placing them for 5 minutes in each of the following; 2×100% ethanol, 1×95% ethanol, 1×70% ethanol. The slides are then rinsed in running tap water for 1 minute. Staining is with Gill's haematoxylin (2 minutes) followed by rinsing in water for 2 minutes then placing in 1% eosin for 5 minutes and rinsing briefly in water. The samples are dehydrated once more by placing in 70% ethanol for 30 seconds, 95% ethanol for 30 seconds and 2 changes of 100% ethanol for 1 and 2 minutes each. The slides are then placed in xylene for 1 minute before mounting coverslips with DPX mountant for microscopy.
Slides are examined under light microscope at using the 40×objective lens and typical images are captured onto the PC using Synoptics Acquis Pro.
as §1, with “applied.” for “applied. 200 μl of each treatment is applied to the surface of the skin equivalent as follows: Control—buffered salt solution; 10% foetal bovine serum; 0.25% chymotrypsin; 6 μM Peptide 643.”
200 μl of the following treatments are applied to the surface of the skin equivalents: (1) Control—buffered salt solution; (2) 6 μM Peptide 641; (3) 6 μM Peptide 642; (4) 6 μM Peptide643; (5) 6 μM Peptide 651; (6) 6 μM Peptide 653.
The following treatments are diluted from stock solutions (10 μg/ml TNF-α, 1 μg/m IL-1β) directly into 1 ml of medium and added to the well during the medium change: (7) 2.5 ng/ml TNF-α; and (8) 75 ng/ml IL-1β.

[2] = test system: psoriatic skin biopsy (stratum corneum); experiment: Treatment of skin biopsies from psoriatic patients with protease, transmission electron microscopy; set-up: species or system human; settings: 0.25% chymotrypsin, 16 hours at 37° C, versus untreated half
Method: All biopsies are carried out by a dermatologist in an operating theatre. Aseptic technique is employed and sterile/disposable equipment used throughout the procedure. Two skin biopsies are taken from the lower back of each patient, one from an area of active plaque psoriasis and the other from an uninvolved site at least 10 cm away. The lower back is cleaned with antiseptic solution and local anaesthetic introduced to the intended areas of biopsy. Ellipses approximately 1.5 cm by 0.5 cm are excised from both lesional and non-lesional skin and placed in a container with PBS solution. The wounds are sutured using catgut for deep sutures and ethilon for superficial sutures (employing two or three stitches per wound). After the operation the wounds are covered with a sterile dressing and the patient observed for 30 minutes before being allowed home. Sutures are removed two weeks later.
The following procedures are performed under aseptic conditions: The psoriatic skin biopsy is cut into 2 pieces using a sterile scalpel. One half of the biopsy is placed in 2 ml of 0.25% chymotrypsin (diluted from a 10×stock in skin maintenance medium, Skinethic) in one well of a 24-well plate. The other half is incubated in 2 ml of maintenance medium with no additions. […]
Ultrathin sections (70-90 nm) are cut on an ultramicrotome. […] Electron micrographs are recorded on Agfa Scientia 23D56 EM film.

PTRITSPNDPCL40TGKGDSSGFSGSSSSGSSISSAR [peptide P1]
products of proteolysis by chymotrypsin (chymotrypsin): two products of proteolysis

NH2-cys-val-ser-pro-val-lys-ala-COOH (H-CVSPVKA-OH) [Peptide 643, fragment of SLPI (CVSPVKA)]
effect of peptide on stratum corneum of skin equivalent [1]: thickening of the stratum corneum

TNF-α
effect of cytokine on stratum corneum thickness of skin equivalent [1]: increase in the thickness of the stratum corneum

NH2-ser-gly-lys-arg-asp-lys-ser-glu-glu-val-gln-cys-COOH (H-SGKRDKSEEVQC-OH) [Peptide 642, fragment of Desmoplakin (…)]
effect of peptide on stratum corneum of skin equivalent [1]: more permeable

chymotrypsin
corneodesmosomes visible in stratum corneum [2]: far fewer corneodesmosomes are visible | stratum corneum morphology (corneocyte layers) [2]: splitting of the layers of corneocytes (acantholysis) | effect of protease on stratum corneum barrier of skin equivalent ([1]; applied to surface, chymotrypsin 0.25%): degrades the barrier of the stratum corneum

NH2-leu-asp-pro-val-asp-thr-pro-asn-pro-thr-arg-arg-lys-pro-gly-COOH [Peptide 653]
effect of peptide on stratum corneum of skin equivalent [1]: increase in the thickness of the stratum corneum

NH2-met-glu-asn-ser-leu-gly-pro-phe-pro-gln-cys-COOH (H-MENSLGPFPQC-OH) [Peptide 641, fragment of Desmocollin 1 (…)]
effect of peptide on stratum corneum of skin equivalent [1]: more permeable

IL-1β: cytokine purchased from Calbiochem
effect of cytokine on stratum corneum thickness of skin equivalent [1]: increase in the thickness of the stratum corneum

PTRITSPNDPCF40TGKGDSSGFSGSSSSGSSISSAR [peptide P2]
products of proteolysis by chymotrypsin (chymotrypsin): three small peptides

NH2-leu-asp-pro-val-asp-COOH [Peptide 651]
effect of peptide on stratum corneum of skin equivalent [1]: increase in the thickness of the stratum corneum
